No end group written: not given here.
Legend:
[1] = tested on: human pulmonary small cell carcinoma cell line RERF-LC-MA; test: Inhibition of proliferation of cancer cells (XTT based Cell Proliferation Kit), RERF-LC-MA; settings: peptide added at 5 μg/mL or 10 μg/m, incubation at 37° C. for three days; p=0.031 vs scrambled peptide control
Procedure: (§1) The human pulmonary small cell carcinoma cell line RERF-LC-MA, the human prostate cancer cell line PC-3, and the human breast cancer cell line MCF-7 were used as the cancer cells.
(§2) A 96-well plate was inoculated with the above-mentioned cells at a density of 0.6×10^3 to 1.0×10^3 cells per well, and then cultured at 37° C. for three days. Then, cell proliferation was quantified using the Cell Proliferation Kit (XTT based).
(§3) Next, the above-mentioned peptides were separately added to the culture system at concentrations of 0 μg/mL, 1 μg/mL, 5 μg/mL and 10 μg/m, followed by incubation at 37° C. for three days. After completion of the incubation, the number of cancer cells was counted.

[2] = tested on: human breast cancer cell line MCF-7; test: Inhibition of proliferation of cancer cells (XTT based Cell Proliferation Kit), MCF-7; settings: peptide added, incubation at 37° C. for three days; data not shown
Procedure: as §1, §2, §3

[3] = tested on: mRNA of the VEGFR1, RECK, MMP9 and MMP14 in the osteoclasts; test: mRNA expression of molecule groups in osteoclasts by qPCR; type: cell-based; settings: peptide A vs scrambled peptide, 24 hours after addition
Procedure: (§4) The peptides were added to the cancer cells and osteoclasts to determine a change in the expression of each molecular group resulting from the interaction between the peptide and the cancer cells or between the peptide and osteoclasts by confirming the expression of mRNA using quantitative polymerase chain reaction (qPCR).
The following molecule groups were used which are expressed in the cancer cells and/or osteoclasts as reported in Yoko Morioka et al.: “The roles of MMPs and RECK in cancer progression”, Cell Technology. Vol. 28, No. 7, 659-679 (2009).
(§5) The cancer cells and the osteoclasts were separately inoculated into a 6-well plate at a density of 1×10^5 to 2×10^5 cells per well. Twenty-four hours later, the medium was changed to D-MEM (1% FCS, 2 mM L-glu). Another 24 hours later, the medium was changed, and at the same time the peptide A or the control was added. After 24 hours, the cells were collected and extraction of the RNA was conducted.

[4] = tested on: human prostate cancer cell line PC-3; test: Inhibition of proliferation of cancer cells (XTT based Cell Proliferation Kit), PC-3; settings: peptide added, incubation at 37° C. for three days; data not shown
Procedure: as §1, §2, §3

[5] = tested on: GAPDH mRNA in RERF-LC-MA cell; test: GAPDH mRNA expression in cancer cells by qPCR; type: cell-based, human; settings: RERF-LC-MA cell (only in this cancer cell line), 24 hours after addition
Procedure: as §4
As the cancer cells, those as shown in Example 1 were used.
as §5

For “GQNGSTPDGSTHFPSWEMAANEPLKTHRE [peptide A, 29-mer peptide derived from the TCTA protein, containing extracellular domain GQN]”, the “proliferation of the RERF-LC-MA cells (reduced to)” value [1] was “about 85%”, the “inhibitory effect on proliferation of the MCF-7 cells” value [2] was “almost no inhibitory effect” and the “expression of mRNA of MMP9 in the osteoclasts” value [3] was “no significant difference”. For the same sequence, the “expression of mRNA of MMP14 in the osteoclasts” value [3] was “no significant difference”, the “expression of mRNA of RECK in the osteoclasts” value [3] was “no significant difference” and the “expression of mRNA of VEGFR1 in the osteoclasts” value [3] was “no significant difference”. The “inhibitory effect on proliferation of the PC-3 cells” value [4] was “almost no inhibitory effect” and the “GAPDH mRNA expression” value [5] was “reduced”.
